Values quoted from earlier work, collected in US20230144779A1, “FORMULATIONS AND METHOD FOR TREATMENT OF INFLAMMATORY DISEASES” (VYOME THERAPEUTICS INC., priority 2019, published 2023).

COc1c(C)c2c(c(O)c1C/C=C(\C)CCC(=O)O)C(=O)OC2 [Mycophenolic acid (MPA), Mycophenolic acid]
solubility: Practical insoluble, 63 mcg/ml. MPA as such is not available in the market, it is available as salt form Hydrophilic nature as compared to its ester prodrug
